IC50 data for 24 molecules are collected here from US9828396B2, “Alkyne compounds for treatment of complement mediated disorders” (Achillion Pharmaceuticals, Inc., priority 2014, dated 2017).

The target in this test is Human factor D (Homo sapiens (Human), UniProt P00746). The test is described as follows: Human Factor D Assay. The format is biochemical. To be noted: Human factor D 80 nM, substrate Z-L-Lys-SBzl, assay of Example 12. How it is done:
Example 12. Human Factor D Assay
Human factor D (purified from human serum, Complement Technology, Inc.) at 80 nM final concentration is incubated with test compound at various concentrations for 5 minutes at room temperature in 50 mM Tris, 1M NaCl, pH 7.5. A synthetic substrate Z-L-Lys-SBzl and DTNB (Ellman's reagent) are added to final concentrations of 100 μM each. The increase in color is recorded at OD405 nm in a microplate in kinetic mode over 30 minutes with 30 second time points in a spectrofluorimeter. IC50 values are calculated by non-linear regression from the percentage of inhibition of complement factor D activity as a function of test compound concentration.

Usually IC50 stands for the concentration needed to halve the response being measured. Low readings indicate higher potency, high ones lower potency.

Sequence of Human factor D (P00746 26-253): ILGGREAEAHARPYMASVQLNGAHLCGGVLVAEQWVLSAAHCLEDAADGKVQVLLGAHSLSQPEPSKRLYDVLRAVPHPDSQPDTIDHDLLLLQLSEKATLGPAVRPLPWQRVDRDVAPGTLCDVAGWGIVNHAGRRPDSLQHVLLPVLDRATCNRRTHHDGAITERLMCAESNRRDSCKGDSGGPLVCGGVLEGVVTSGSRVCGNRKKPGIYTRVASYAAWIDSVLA

For `NC(=O)c1nn(CC(=O)N2C[C@H](F)C[C@H]2C(=O)NCc2cccc(Cl)c2F)c2cnc(C#Cc3ncccn3)cc12` [Compound 32, 1-(2-((2S,4R)-2-(3-chloro-2-fluorobenzylcarbamoyl)-4-fluoropyrrolidin-1-yl)-2-oxoethyl)-5-(pyrimidin-2-ylethynyl)-1H-pyrazolo[3,4-c]pyridine-3-carboxamide], the IC50 is under 1000 nM.
As for `O=C(O)C#Cc1ccc2c(C(=O)C(F)(F)F)cn(CC(=O)N3C[C@H](F)C[C@H]3C(=O)NCc3cccc(Cl)c3F)c2c1` [Compound 11, 3-(1-(2-((2S,4R)-2-(3-chloro-2-fluorobenzylcarbamoyl)-4-fluoropyrrolidin-1-yl)-2-oxoethyl)-3-(2,2,2-trifluoroacetyl)-1H-indol-6-yl)propiolic acid], the IC50 was under 1000 nM.
In the case of `N#Cc1cccc(NC(=O)[C@@H]2C[C@H]3C[C@H]3N2C(=O)Cn2nc(C(N)=O)c3cc(C#Cc4ncccn4)ccc32)n1` [Compound 57, 1-(2-((1R,3S,5R)-3-(6-cyanopyridin-2-ylcarbamoyl)-2-azabicyclo[3.1.0]hexan-2-yl)-2-oxoethyl)-5-(pyrimidin-2-ylethynyl)-1H-indazole-3-carboxamide], the IC50 was under 1000 nM.
As to `NC(=O)c1nn(CC(=O)N2C[C@H](F)C[C@H]2C(=O)Nc2cccc(C(F)(F)F)n2)c2ccc(C#Cc3ncccn3)cc12` [Compound 33, 1-(2-((2S,4R)-4-fluoro-2-(6-(trifluoromethyl)pyridin-2-ylcarbamoyl)pyrrolidin-1-yl)-2-oxoethyl)-5-(pyrimidin-2-ylethynyl)-1H-indazole-3-carboxamide], the IC50 was under 1000 nM.
The same measure for `NC(=O)c1nn(CC(=O)N2C[C@H](F)C[C@H]2C(=O)NCc2cccc(Cl)c2F)c2ccc(C#Cc3cn[nH]c3)cc12` [Compound 29, 5-((1H-pyrazol-4-yl)ethynyl)-1-(2-((2S,4R)-2-(3-chloro-2-fluorobenzylcarbamoyl)-4-fluoropyrrolidin-1-yl)-2-oxoethyl)-1H-indazole-3-carboxamide]: under 1000 nM.
In the case of `NC(=O)c1nn(CC(=O)N2C[C@H](F)C[C@H]2C(=O)Nc2cccc(-c3cn[nH]c3)n2)c2ccc(C#Cc3ncccn3)cc12` [Compound 50, 1-(2-((2S,4R)-2-(6-(1H-pyrazol-4-yl)pyridin-2-ylcarbamoyl)-4-fluoropyrrolidin-1-yl)-2-oxoethyl)-5-(pyrimidin-2-ylethynyl)-1H-indazole-3-carboxamide], the IC50 is under 1000 nM.
Take `CCS(=O)(=O)NC(=O)C#Cc1ccc2c(c1)c(C(C)=O)cn2CC(=O)N1C[C@H](F)C[C@H]1C(=O)NCc1cccc(Cl)c1F` [Compound 8, (2S,4R)-1-(2-(3-acetyl-5-(3-(ethylsulfonamido)-3-oxoprop-1-ynyl)-1H-indol-1-yl)acetyl)-N-(3-chloro-2-fluorobenzyl)-4-fluoropyrrolidine-2-carboxamide]: the 50% inhibitory concentration (IC50) was under 1000 nM.
The result for `NC(=O)c1nn(CC(=O)N2[C@@H]3C[C@@H]3C[C@H]2C(=O)Nc2cccc(Br)n2)c2ccc(C#Cc3ncc(C(F)(F)F)cn3)cc12` [Compound 61, 1-(2-((1R,3S,5R)-3-(6-bromopyridin-2-ylcarbamoyl)-2-azabicyclo[3.1.0]hexan-2-yl)-2-oxoethyl)-5-((5-(trifluoromethyl)pyrimidin-2-yl)ethynyl)-1H-indazole-3-carboxamide] reads under 1000 nM; that for `NC(=O)c1nn(CC(=O)N2[C@@H]3C[C@@H]3C[C@H]2C(=O)Nc2cccc(-c3ccc(F)cc3Cl)c2F)c2ccc(C#Cc3ncc(F)cn3)cc12` [Compound 64, 1-(2-((1R,3S,5R)-3-(2′-chloro-2,4′-difluorobiphenyl-3-ylcarbamoyl)-2-azabicyclo[3.1.0]hexan-2-yl)-2-oxoethyl)-5-((5-fluoropyrimidin-2-yl)ethynyl)-1H-indazole-3-carboxamide], under 1000 nM.
`CC(=O)c1cn(CC(=O)N2C[C@H](F)C[C@H]2C(=O)NCc2cccc(Cl)c2F)c2ccc(C#Cc3cncnc3)cc12` [Compound 16, (2S,4R)-1-(2-(3-acetyl-5-(pyrimidin-5-ylethynyl)-1H-indol-1-yl)acetyl)-N-(3-chloro-2-fluorobenzyl)-4-fluoropyrrolidine-2-carboxamide] gave an IC50 of under 1000 nM.
On to `COC(=O)C#Cc1ccc2c(C(C)=O)cn(CC(=O)N3C[C@H](F)C[C@H]3C(=O)NCc3cccc(Cl)c3F)c2c1` [Compound 4, methyl 3-(3-acetyl-1-(2-((2S,4R)-2-(3-chloro-2-fluorobenzylcarbamoyl)-4-fluoropyrrolidin-1-yl)-2-oxoethyl)-1H-indol-6-yl)propiolate], for which the IC50 was under 1000 nM.
The result for `NC(=O)c1nn(CC(=O)N2C[C@H](F)C[C@H]2C(=O)Nc2cncc(-c3ccccc3Cl)n2)c2ccc(C#Cc3ncc(F)cn3)cc12` [Compound 85, 1-(2-((2S,4R)-2-(6-(2-chlorophenyl)pyrazin-2-ylcarbamoyl)-4-fluoropyrrolidin-1-yl)-2-oxoethyl)-5-((5-fluoropyrimidin-2-yl)ethynyl)-1H-indazole-3-carboxamide] reads under 1000 nM.
On to `NC(=O)c1nn(CC(=O)N2C[C@H](F)C[C@H]2C(=O)NCc2cccc(Cl)c2F)c2ccc(C#Cc3cccc(N)n3)cc12` [Compound 36, 5-((6-aminopyridin-2-yl)ethynyl)-1-(2-((2S,4R)-2-(3-chloro-2-fluorobenzylcarbamoyl)-4-fluoropyrrolidin-1-yl)-2-oxoethyl)-1H-indazole-3-carboxamide], for which the IC50 was under 1000 nM.
As to `NC(=O)c1nn(CC(=O)N2C[C@H](F)C[C@H]2C(=O)Nc2cccc(-c3ccccc3Cl)c2F)c2ccc(C#Cc3ncc(F)cn3)cc12` [Compound 55, 1-(2-((2S,4R)-2-(2′-chloro-2-fluorobiphenyl-3-ylcarbamoyl)-4-fluoropyrrolidin-1-yl)-2-oxoethyl)-5-((5-fluoropyrimidin-2-yl)ethynyl)-1H-indazole-3-carboxamide], the IC50 is under 1000 nM.
The same measure for `NC(=O)c1nn(CC(=O)N2[C@@H]3CC(F)(F)[C@@H]3C[C@H]2C(=O)NCc2cccc(Cl)c2F)c2ccc(C#Cc3ncccn3)cc12` [Compound 51, 1-(2-((1R,3S,5R)-3-(3-chloro-2-fluorobenzylcarbamoyl)-6,6-difluoro-2-azabicyclo[3.2.0]heptan-2-yl)-2-oxoethyl)-5-(pyrimidin-2-ylethynyl)-1H-indazole-3-carboxamide]: 1000 to 10000 nM; for `NC(=O)c1nn(CC(=O)N2C[C@H](F)C[C@H]2C(=O)Nc2cncc(Br)c2)c2ccc(C#Cc3ncc(F)cn3)cc12` [Compound 68, 1-(2-((2S,4R)-2-(5-bromopyridin-3-ylcarbamoyl)-4-fluoropyrrolidin-1-yl)-2-oxoethyl)-5-((5-fluoropyrimidin-2-yl)ethynyl)-1H-indazole-3-carboxamide]: under 1000 nM.
The result for `CC(=O)c1cn(CC(=O)N2C[C@H](F)C[C@H]2C(=O)NCc2cccc(Cl)c2F)c2ccc(C#CC(=O)O)cc12` [Compound 6, 3-(3-acetyl-1-(2-((2S,4R)-2-(3-chloro-2-fluorobenzylcarbamoyl)-4-fluoropyrrolidin-1-yl)-2-oxoethyl)-1H-indol-5-yl)propiolic acid] reads under 1000 nM; that for `NC(=O)c1nn(CC(=O)N2[C@@H]3C[C@@H]3C[C@H]2C(=O)Nc2cccc(-c3ccccc3Cl)c2F)c2ccc(C#Cc3ncccn3)cc12` [Compound 27, 1-(2-((1R,3S,5R)-3-(2′ chloro-2-fluorobiphenyl-3-ylcarbamoyl)-2-azabicyclo[3.1.0]hexan-2-yl)-2-oxoethyl)-5-(pyrimidin-2-ylethynyl)-1H-indazole-3-carboxamide], under 1000 nM.
The result for `CC(=O)c1cn(CC(=O)N2C[C@H](F)C[C@H]2C(=O)NCc2cccc(Cl)c2F)c2ccc(C#Cc3c[nH]nc3C#N)cc12` [Compound 24, (2S,4R)-1-(2-(3-acetyl-5-((3-cyano-1H-pyrazol-4-yl)ethynyl)-1H-indol-1-yl)acetyl)-N-(3-chloro-2-fluorobenzyl)-4-fluoropyrrolidine-2-carboxamide] reads under 1000 nM; that for `CC(=O)c1cn(CC(=O)N2C[C@H](F)C[C@H]2C(=O)NCc2cccc(Cl)c2F)c2ccc(C#Cc3ccncc3)cc12` [Compound 17, (2S,4R)-1-(2-(3-acetyl-5-(pyridin-4-ylethynyl)-1H-indol-1-yl)acetyl)-N-(3-chloro-2-fluorobenzyl)-4-fluoropyrrolidine-2-carboxamide], under 1000 nM; that for `NC(=O)c1nn(CC(=O)N2[C@@H]3C[C@@H]3C[C@H]2C(=O)Nc2cccc(Cl)n2)c2ccc(C#Cc3ncccn3)cc12` [Compound 56, 1-(2-((1R,3S,5R)-3-(6-chloropyridin-2-ylcarbamoyl)-2-azabicyclo[3.1.0]hexan-2-yl)-2-oxoethyl)-5-(pyrimidin-2-ylethynyl)-1H-indazole-3-carboxamide], under 1000 nM.
Turning to `CC(=O)c1cn(CC(=O)N2C[C@H](F)C[C@H]2C(=O)NCc2cccc(Cl)c2F)c2ccc(C#Cc3cnsc3)cc12` [Compound 18, (2S,4R)-1-(2-(3-acetyl-5-(isothiazol-4-ylethynyl)-1H-indol-1-yl)acetyl)-N-(3-chloro-2-fluorobenzyl)-4-fluoropyrrolidine-2-carboxamide], the IC50 is under 1000 nM.
The same measure for `NC(=O)c1nn(CC(=O)N2C[C@H](F)C[C@H]2C(=O)Nc2cccc(Br)n2)c2ccc(C#Cc3ncc(F)cn3)cc12` [Compound 46, 1-(2-((2S,4R)-2-(6-bromopyridin-2-ylcarbamoyl)-4-fluoropyrrolidin-1-yl)-2-oxoethyl)-5-((5-fluoropyrimidin-2-yl)ethynyl)-1H-indazole-3-carboxamide]: under 1000 nM; for `CC(=O)c1nn(CC(=O)N2C[C@H](F)C[C@H]2C(=O)Nc2cccc(Br)n2)c2ccc(C#Cc3ncc(F)cn3)cc12` [Compound 90, (2S,4R)-1-(2-(3-acetyl-5-((5-fluoropyrimidin-2-yl)ethynyl)-1H-indazol-1-yl)acetyl)-N-(6-bromopyridin-2-yl)-4-fluoropyrrolidine-2-carboxamide]: under 1000 nM.
